From ChEMBL document CHEMBL1201862, “PubChem BioAssay data set” (2004)
Activity calls are given as the source filed them.

Experiments:
[1] = biological target: T1, Endoribonuclease toxin MazF (Escherichia coli K-12, UniProt P0AE70); assay: activation of MazEF endoribonuclease cleavage – biochemical, fluorescence, single-stranded RNA substrate, uHTS hits, dose response (AID 588481); format: functional
T1 sequence (P0AE70 whole entry): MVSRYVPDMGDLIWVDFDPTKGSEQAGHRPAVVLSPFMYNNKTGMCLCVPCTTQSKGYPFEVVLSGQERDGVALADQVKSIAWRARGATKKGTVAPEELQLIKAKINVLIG

[2] = biological target: Arf-GAP with SH3 domain, ANK repeat and PH domain-containing protein 1 (Homo sapiens, UniProt Q9ULH1); format: functional;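 note: biochemical fluorescence polarization dose–response screen measuring inhibition of ASAP1; ASAP1 GAP domain stimulating GTP hydrolysis by truncated human ARF1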
Chain of Arf-GAP with SH3 domain, ANK repeat and PH domain-containing protein 1 (Q9ULH1 whole entry, the tested form may be a part): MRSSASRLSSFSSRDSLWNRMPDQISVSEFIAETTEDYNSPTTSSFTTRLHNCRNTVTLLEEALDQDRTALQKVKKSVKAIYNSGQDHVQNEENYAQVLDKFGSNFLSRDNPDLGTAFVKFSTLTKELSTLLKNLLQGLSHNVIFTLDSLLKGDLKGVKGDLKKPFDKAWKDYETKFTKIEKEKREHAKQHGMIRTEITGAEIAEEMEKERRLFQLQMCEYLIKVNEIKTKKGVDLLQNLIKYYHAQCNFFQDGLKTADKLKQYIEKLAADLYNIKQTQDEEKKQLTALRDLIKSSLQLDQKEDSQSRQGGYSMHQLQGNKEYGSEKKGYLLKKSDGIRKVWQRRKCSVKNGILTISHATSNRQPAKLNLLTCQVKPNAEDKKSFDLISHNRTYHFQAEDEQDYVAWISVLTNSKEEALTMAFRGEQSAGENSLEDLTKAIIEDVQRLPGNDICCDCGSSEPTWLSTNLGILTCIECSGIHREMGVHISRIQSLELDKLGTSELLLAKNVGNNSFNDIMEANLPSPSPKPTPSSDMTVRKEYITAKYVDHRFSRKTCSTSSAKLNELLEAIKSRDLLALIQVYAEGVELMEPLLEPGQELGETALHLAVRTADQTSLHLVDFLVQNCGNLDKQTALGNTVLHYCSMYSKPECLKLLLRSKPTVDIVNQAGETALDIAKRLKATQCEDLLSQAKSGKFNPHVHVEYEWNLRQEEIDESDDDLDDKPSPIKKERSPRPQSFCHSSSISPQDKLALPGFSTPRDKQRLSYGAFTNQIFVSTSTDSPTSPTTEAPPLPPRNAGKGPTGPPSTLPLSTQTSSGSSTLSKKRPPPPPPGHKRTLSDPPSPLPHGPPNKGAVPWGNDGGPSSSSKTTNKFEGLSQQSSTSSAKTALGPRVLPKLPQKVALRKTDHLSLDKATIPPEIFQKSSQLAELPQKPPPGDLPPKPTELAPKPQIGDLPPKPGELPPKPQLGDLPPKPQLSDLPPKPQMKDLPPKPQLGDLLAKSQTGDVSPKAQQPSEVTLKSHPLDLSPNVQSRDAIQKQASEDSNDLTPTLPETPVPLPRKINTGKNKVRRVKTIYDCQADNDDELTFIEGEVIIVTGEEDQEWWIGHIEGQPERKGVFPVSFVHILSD

[3] = biological target: T1, Endoribonuclease toxin MazF; assay: substrate-only fluorescence increase artefacts – biochemical, single-stranded RNase substrate, counter-screen for MazEF activator project, dose response (AID 588502); format: functional
[4] = biological target: T2, Nuclear receptor subfamily 0 group B member 1 (Homo sapiens, UniProt P51843); assay: Luminescence-based cell-based high throughput dose response assay for inhibitors of the orphan nuclear receptor subfamily 0, group B, member 1 (DAX1; NR0B1). [Related pubchem assays (depositor defined):AID504766, AID504790]; format: functional
T2 sequence (P51843 whole entry): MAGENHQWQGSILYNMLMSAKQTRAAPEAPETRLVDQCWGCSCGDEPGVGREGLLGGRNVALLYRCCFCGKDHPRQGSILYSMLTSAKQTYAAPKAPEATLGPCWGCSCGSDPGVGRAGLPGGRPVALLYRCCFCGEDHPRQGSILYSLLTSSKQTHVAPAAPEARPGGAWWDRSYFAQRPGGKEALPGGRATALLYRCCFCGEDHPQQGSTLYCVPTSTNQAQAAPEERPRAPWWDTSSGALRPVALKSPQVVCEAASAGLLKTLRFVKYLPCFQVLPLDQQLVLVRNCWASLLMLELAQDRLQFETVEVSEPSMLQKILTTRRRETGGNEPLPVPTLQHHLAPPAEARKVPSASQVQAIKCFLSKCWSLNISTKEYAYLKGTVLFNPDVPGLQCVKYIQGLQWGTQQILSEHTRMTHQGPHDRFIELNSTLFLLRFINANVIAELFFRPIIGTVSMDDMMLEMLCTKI

HEK293 = assay: cells; format: functional, cell-based; conditions: Homo sapiens
[5] = biological target: Adenosylmethionine-8-amino-7-oxononanoate aminotransferase (Mycobacterium tuberculosis, UniProt P9WQ81); assay: Mycobacterium tuberculosis BioA enzyme inhibitor Measured in Biochemical System Using Plate Reader - 2163-02_Inhibitor_Dose_CherryPick_Activity.; format: functional, Mycobacterium tuberculosis UT205
Chain of Adenosylmethionine-8-amino-7-oxononanoate aminotransferase (P9WQ81 whole entry): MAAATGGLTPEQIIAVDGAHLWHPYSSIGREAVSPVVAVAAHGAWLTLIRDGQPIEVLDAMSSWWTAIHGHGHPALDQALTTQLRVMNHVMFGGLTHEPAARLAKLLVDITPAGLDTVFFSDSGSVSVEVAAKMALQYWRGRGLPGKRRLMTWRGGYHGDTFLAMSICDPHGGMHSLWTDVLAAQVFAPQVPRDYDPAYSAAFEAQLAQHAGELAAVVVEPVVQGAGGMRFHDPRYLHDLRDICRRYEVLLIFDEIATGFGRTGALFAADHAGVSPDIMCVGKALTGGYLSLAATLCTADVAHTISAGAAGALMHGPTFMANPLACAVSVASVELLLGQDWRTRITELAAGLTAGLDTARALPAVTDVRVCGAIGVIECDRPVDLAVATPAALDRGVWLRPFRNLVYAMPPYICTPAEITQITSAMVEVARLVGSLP

[6] = biological target: T3, Aryl hydrocarbon receptor (Homo sapiens, UniProt P35869); conditions: Potency;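 note: confirmatory quantitative high-throughput screen measuring activation of the AhR signaling pathway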
T3 sequence (P35869 whole entry): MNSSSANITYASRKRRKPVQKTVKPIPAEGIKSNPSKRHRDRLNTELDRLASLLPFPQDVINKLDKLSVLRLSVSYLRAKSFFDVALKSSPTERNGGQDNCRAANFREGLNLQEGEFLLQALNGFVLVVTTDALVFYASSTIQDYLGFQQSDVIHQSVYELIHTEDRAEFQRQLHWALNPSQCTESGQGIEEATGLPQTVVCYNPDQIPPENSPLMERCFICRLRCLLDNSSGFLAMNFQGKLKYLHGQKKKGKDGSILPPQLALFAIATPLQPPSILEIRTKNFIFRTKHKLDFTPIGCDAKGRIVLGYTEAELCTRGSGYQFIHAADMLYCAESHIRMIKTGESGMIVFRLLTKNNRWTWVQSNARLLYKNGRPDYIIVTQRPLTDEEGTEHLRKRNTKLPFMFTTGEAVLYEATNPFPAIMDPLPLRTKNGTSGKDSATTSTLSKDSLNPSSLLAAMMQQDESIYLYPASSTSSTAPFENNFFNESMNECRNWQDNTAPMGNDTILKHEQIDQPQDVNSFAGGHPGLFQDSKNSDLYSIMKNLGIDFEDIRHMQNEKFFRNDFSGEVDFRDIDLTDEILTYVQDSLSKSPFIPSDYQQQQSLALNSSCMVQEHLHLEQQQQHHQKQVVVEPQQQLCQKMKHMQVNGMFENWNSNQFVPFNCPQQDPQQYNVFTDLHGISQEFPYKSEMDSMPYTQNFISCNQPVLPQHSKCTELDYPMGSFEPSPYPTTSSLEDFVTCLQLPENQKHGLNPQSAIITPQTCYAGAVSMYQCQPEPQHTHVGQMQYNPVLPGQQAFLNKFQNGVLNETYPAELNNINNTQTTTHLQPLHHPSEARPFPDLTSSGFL

[7] = biological target: Mitogen-activated protein kinase 9 (Homo sapiens, UniProt P45984); format: functional;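 note: value from a kinome panel profiling assay, MAPK9 panel entry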
Chain of Mitogen-activated protein kinase 9 (P45984 whole entry): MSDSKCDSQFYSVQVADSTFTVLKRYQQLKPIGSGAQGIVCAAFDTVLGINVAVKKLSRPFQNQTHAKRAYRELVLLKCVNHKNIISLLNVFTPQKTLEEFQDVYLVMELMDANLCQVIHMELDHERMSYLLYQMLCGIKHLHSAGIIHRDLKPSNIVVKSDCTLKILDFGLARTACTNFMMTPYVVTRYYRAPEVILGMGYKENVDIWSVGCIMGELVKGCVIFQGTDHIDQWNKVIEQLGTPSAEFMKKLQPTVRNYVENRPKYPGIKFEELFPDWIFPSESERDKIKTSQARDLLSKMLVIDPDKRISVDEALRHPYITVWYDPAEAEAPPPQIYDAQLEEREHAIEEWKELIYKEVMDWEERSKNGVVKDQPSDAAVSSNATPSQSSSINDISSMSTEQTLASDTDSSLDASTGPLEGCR

[8] = biological target: Dual specificity protein kinase CLK4 (Homo sapiens, UniProt Q9HAZ1); format: functional
Chain of Dual specificity protein kinase CLK4 (Q9HAZ1 whole entry): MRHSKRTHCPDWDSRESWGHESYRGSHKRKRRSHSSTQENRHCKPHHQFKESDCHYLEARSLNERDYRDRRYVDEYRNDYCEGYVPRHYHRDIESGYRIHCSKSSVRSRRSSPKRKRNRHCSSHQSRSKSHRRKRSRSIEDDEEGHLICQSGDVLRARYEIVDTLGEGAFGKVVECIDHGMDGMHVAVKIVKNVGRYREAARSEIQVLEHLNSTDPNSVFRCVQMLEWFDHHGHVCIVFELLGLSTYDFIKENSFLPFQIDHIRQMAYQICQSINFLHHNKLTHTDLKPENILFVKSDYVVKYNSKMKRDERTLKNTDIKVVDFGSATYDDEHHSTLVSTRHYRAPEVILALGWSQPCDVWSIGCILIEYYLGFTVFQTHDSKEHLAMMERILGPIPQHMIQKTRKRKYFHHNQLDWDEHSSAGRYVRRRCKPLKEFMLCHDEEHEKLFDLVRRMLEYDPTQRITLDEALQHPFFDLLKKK

[9] = biological target: Dual specificity tyrosine-phosphorylation-regulated kinase 1A (Homo sapiens, UniProt Q13627); format: functional;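 note: measured against DYRK1A as one member of a broad kinome profiling panel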
[10] = biological target: Dual specificity protein kinase CLK2 (Homo sapiens, UniProt P49760); format: functional
Chain of Dual specificity protein kinase CLK2 (P49760 whole entry, the tested form may be a part): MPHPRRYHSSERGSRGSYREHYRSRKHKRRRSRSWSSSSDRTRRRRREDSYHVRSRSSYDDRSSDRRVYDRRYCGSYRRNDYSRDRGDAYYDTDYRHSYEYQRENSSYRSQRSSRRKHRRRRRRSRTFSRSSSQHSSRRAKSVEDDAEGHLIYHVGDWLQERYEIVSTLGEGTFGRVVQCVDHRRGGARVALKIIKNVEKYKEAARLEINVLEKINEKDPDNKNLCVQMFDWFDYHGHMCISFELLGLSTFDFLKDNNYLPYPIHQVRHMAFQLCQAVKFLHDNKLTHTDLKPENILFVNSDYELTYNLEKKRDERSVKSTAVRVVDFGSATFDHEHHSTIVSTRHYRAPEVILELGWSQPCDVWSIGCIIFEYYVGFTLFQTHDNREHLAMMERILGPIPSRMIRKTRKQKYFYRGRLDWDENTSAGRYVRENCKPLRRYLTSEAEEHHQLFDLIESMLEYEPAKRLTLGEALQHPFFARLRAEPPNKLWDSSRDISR

[11] = biological target: Hepatocyte nuclear factor 4-alpha (Homo sapiens, UniProt P41235); format: functional, cell-based;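 note: biochemical luminescence-based dose-response counterscreen measuring inhibition of HNF4 dimerization, run alongside a screen for blockers of ABHD5–perilipin-5 interaction; split luciferase complementation of HNF4 fusion proteins in cell lysate measuring dimerization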
Chain of Hepatocyte nuclear factor 4-alpha (P41235 whole entry, the tested form may be a part): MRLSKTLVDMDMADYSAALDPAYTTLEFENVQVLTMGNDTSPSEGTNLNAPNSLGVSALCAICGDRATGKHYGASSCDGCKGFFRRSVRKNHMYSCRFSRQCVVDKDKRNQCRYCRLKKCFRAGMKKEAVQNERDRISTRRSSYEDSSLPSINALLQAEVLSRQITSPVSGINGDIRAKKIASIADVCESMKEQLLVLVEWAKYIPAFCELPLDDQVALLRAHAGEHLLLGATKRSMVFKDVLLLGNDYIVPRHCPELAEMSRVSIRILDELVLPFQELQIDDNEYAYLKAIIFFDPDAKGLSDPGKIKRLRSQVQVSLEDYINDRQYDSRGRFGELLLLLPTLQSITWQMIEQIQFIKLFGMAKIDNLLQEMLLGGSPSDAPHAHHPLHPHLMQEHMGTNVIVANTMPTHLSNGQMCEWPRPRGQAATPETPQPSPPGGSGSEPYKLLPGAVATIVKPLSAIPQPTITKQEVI

Streptococcus = assay: GAS UMAA2166 growth inhibition – luminescence, BacTiterGlo, counter-screen for streptokinase expression inhibitor project, dose response (AID 1915); format: functional, organism-based;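 note: potency for reduction of bacterial viability or growth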
cells = format: functional
[12] = NIH3T3 cell viability loss – ATP luminescence, mouse fibroblasts, counter-screen, dose response (AID 2010); format: functional, cell-based;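 note: cells exposed to compound for about 90 hours before reading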
Streptokinase A = biological target: T4, Streptokinase A (Streptococcus pyogenes serotype M1, UniProt P10520); assay: viability-normalized secreted streptokinase activity reduction – plasminogen activation absorbance, OD405, dose response (AID 1914); format: functional, Streptococcus pyogenes M1 GAS;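 note: secreted streptokinase activity via plasminogen activation per viability signal from cell pellet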
T4 sequence (P10520 whole entry): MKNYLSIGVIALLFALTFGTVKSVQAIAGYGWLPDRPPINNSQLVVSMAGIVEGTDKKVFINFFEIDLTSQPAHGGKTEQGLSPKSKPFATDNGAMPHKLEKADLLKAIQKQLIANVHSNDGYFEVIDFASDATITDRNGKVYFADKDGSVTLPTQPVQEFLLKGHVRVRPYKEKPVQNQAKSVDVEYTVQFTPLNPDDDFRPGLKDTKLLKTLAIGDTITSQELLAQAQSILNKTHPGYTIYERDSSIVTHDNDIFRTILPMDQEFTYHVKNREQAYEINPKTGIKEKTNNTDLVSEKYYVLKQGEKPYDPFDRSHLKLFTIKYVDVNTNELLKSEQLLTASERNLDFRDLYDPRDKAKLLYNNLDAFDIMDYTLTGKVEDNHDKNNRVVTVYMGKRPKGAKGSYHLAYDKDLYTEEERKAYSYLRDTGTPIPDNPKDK

[13] = tested on: Streptococcus sp. 'group A'; assay: Streptococcus pyogenes SK(-)GAS viability under kanamycin – luminescence, BacTiterGlo, confirmation, counter-screen for streptokinase expression inhibitor project, dose response (AID 1900); format: functional, organism-based
[14] = Trypanosoma cruzi growth suppression in host cells – NIH3T3 host cells, beta-gal luminescence, confirmation (AID 2044); format: functional, cell-based;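 note: intracellular parasites grown in NIH/3T3 mouse fibroblasts as host cells; luminescent beta-galactosidase reporter signal from transgenic T. cruzi replicating inside host cells; inhibitors lower the luminescence signal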

SMILES: Cc1ccc(NC(=O)c2ccc(NCc3ccco3)c([N+](=O)[O-])c2)cc1Cl
- EC50 [1]: > 99 µM (inactive)
- IC50 [2]: 33.6 µM (inactive)
- EC50 [3]: > 99 µM (inactive)

SMILES: O=S(=O)(NCC1NCCc2ccccc21)c1ccccc1 (stereo not drawn)
- IC50 [4]: > 67.6 µM (inactive)
- IC50 (HEK293): > 67.6 µM (inactive)

SMILES: Cc1cccc(CN2CCN(C(S)=Nc3ccccc3)CC2)c1
- IC50 [4]: > 67.6 µM (inactive)
- IC50 (HEK293): > 67.6 µM (inactive)

SMILES: O=C(COc1ccc2ccc(=O)oc2c1)N1CCN(c2ccc(F)cc2)CC1
- AC50 [5]: 1 µM (active)

SMILES: COc1cc(Cl)c(OC)cc1N
- AC50 [6]: 56.2 µM (inconclusive)

SMILES: CC(C)(C)c1cc(NC(=O)c2cc3ccccc3s2)n(-c2ccc(OCC(=O)O)cc2)n1
- Ki [7]: 3.98 µM (active)

SMILES: O=c1[nH]c2ccc(Br)cc2n1-c1cc(Cl)c(O)cc1O
- Ki [8]: 3.16 µM (active)
- Ki [9]: 5.01 µM (active)
- Ki [10]: 6.31 µM (active)

SMILES: COc1ccc(NC(=O)C(c2cccc3ccccc23)n2c(=O)c(-c3ccco3)nc3ccccc32)cc1 (stereo not drawn)
- IC50 [11]: 25.5 µM (inactive)

SMILES: COc1ccc(NC(=O)C(c2ccccc2)n2c(=O)c(-c3ccco3)nc3ccccc32)cc1 (stereo not drawn)
- IC50 [11]: 12.8 µM (inactive)

SMILES: Cc1ccc(N/N=C2\CS(=O)(=O)N(C)c3ccsc32)cc1
- IC50 [4]: > 67.5 µM (inactive)
- EC50 (Streptococcus): 11.3 µM (active)
- IC50 (cells): 21.2 µM (active)
- IC50 (HEK293): > 67.5 µM (inactive)
- EC50 [12]: > 60 µM (not active)
- EC50 (Streptokinase A): 4.04 µM (active)
- EC50 [13]: 1.25 µM (active)
- EC50 [14]: 2.21 µM (active)
